Assay results from patent US20120171123A1, “USES AND COMPOSITIONS FOR TREATMENT OF RHEUMATOID ARTHRITIS” (priority 2006, published 2012).
Several values for one entry are separate records, joined by “and”; a condition that tells them apart may be missing. Equal values may be shown once. Marks after values point to notes of the source that are not given here.

Tests used:
[1] = test system: MTX-naïve adult patients with active, early RA (<3 years); experiment: Study J (adalimumab 40 mg eow + MTX vs adalimumab alone vs MTX alone, 2 years): ACR20/50/70/90 response and Major Clinical Response; type: in vivo, human; conditions: for Major Clinical Response (ACR70 for ≧6 continuous months): over 2 years
Procedure: This study was a 2-year, double-blind, active-comparator-controlled Phase III study conducted at 149 sites in North America, Europe, and Australia. […] MTX-naïve adult patients with active, early RA (<3 years) were included in the study. Further inclusion criteria included: SJC≧8 and TJC≧10; ESR≧28 mm/hr or CRP≧1.5 mg/dL; and RF-positivity or at least one joint erosion. […] MTX dosages were rapidly optimized to a maximum of 20 mg weekly.
The co-primary endpoints, comparing MTX alone with the combination at 1 year, were the ACR50 response (using non-responder imputation), and inhibition of radiographic progression, as measured by change in total Sharp score (TSS). In this study, the term “Major Clinical Response” (MCR) meant a continuous ACR70 response for 6 or more consecutive months.
The results of this study were evaluated using multiple criteria for clinical remission. This study (Study J) was a 2-year, double-blind, Phase III study.
Secondary endpoints included DAS28<2.6 at year 1 and Major Clinical Response (MCR=ACR70 response for ≧6 continuous months during a 2-year period).
Study J was a 2-year, double-blind, Phase III study. […] MTX dosages were rapidly optimized to a maximum of 20 mg weekly. Mean changes in total Sharp score (TSS) were measured for patients who achieved American College of Rheumatology (ACR) response (ACR20, ACR50, and ACR70), as well as clinical remission by Disease Activity Score 28 (DAS28<2.6).
At 1 and 2 years, the American College of Rheumatology (ACR) responses (ACR20, ACR50, and ACR70), the Disease Activity Score 28 (DAS28), and the change (Δ) in Total Sharp Score (TSS) were determined for all patients. Results were analyzed for the intention-to-treat (ITT) population using imputation for missing data. Clinical remission was defined as DAS28<2.6. The mean ΔTSS values at 1 year and 2 years (N=791) were determined for patients in each ACR response category (ACR20/50/70) and for patients with DAS28<2.6
Patients in the Ada+MTX and the MTX arms were classified according to level of clinical response (non-responder (<ACR20), ACR20, ACR50, or ACR70) and radiographic progression (Yes or No (ΔTSS≦0.5)). The ΔTSS was analyzed overall, and for ACR subgroups. This included determination of mean ΔTSS and probability plots. Analyses used observed data from patients completing 6 months or 2 years of treatment (no imputation).

[2] = test system: MTX-naïve adult patients with active, early RA (<3 years); experiment: Study J: CRP normalization; type: in vivo, human; conditions: for Patient numbers: CRP Abnormal at Baseline, Abnormal at 1 Year / Patient numbers: CRP Normal at Baseline, Abnormal at 1 Year: Abnormal CRP >0.8 mg/dL; for Patient numbers: CRP Abnormal at Baseline, Normal at 1 Year / Patient numbers: CRP Normal at Baseline, Normal at 1 Year: Normal CRP ≦0.8 mg/dL
Procedure: Baseline demographics and clinical characteristics of the patients enrolled in this study are described in Example 7. […] After 1 and 2 years of therapy, the percentages of patients with ACR90 responses, TJC=0, SJC=0, HAQ=0, morning stiffness=0 minutes, and normal CRP were determined. Data are from the intention-to-treat (ITT) population with imputation used for missing values. Results were compared with the percentages of patients who achieved DAS28<2.6 or a Major Clinical Response (MCR).
Radiographic progression was assessed by mean change from baseline in Total Sharp Score (TSS) and stratified into those with (ΔTSS>0.5) and without (Δ≦TSS 0.5). Patients were categorized as either having radiographic progression at 1 year (ΔTSS>0.5) or not (Δ≦TSS 0.5). A logistic regression model was used to identify predictors of radiographic disease progression by testing several baseline characteristics, including age, disease duration, RF status, TJC, SJC, joint erosions, and CRP. For analyses of CRP, patients were categorized as normal (CRP≦0.8 mg/dL) or abnormal (CRP>0.8 mg/dL).

[3] = test system: patients with long-standing RA who had inadequate responses to MTX; experiment: Study 1: ACR20/50/70 response; type: in vivo, human
Procedure: Patients were grouped into three cohorts based on baseline CRP concentrations: low (<1 mg/dL); intermediate (1-4 mg/dL); and high (>4 mg/dL). Analyses were further conducted in two categories of patients according to their change in CRP concentrations at Week 12: those with a ≧20% decrease in CRP from baseline; or those with a <20% decrease in CRP from baseline. The following efficacy and radiographic measures were analyzed at Week 52 in the three baseline CRP categories and in the two Week 12 change in CRP categories: DAS28, ACR 20/50/70, Health assessment questionnaire (HAQ), and Total Sharp score (TSS).
Two readers assessed X-rays performed at baseline (start of RCT), 1 year (end of RCT), and 3 years (post 2 years OLE). Changes from baseline in Total Sharp Score (TSS), Joint Erosions (JE), and Joint Space Narrowing (JSN) were calculated. ACR 20, 50, and 70 response rates, as well as TJC and SJC, were also measured.

[4] = test system: MTX-naïve adult patients with active, early RA (<3 years); experiment: Study J: subject disposition and withdrawals; conditions: 2 years
[5] = test system: MTX-naïve adult patients with active, early RA (<3 years); experiment: Study J: treatment emergent adverse events; conditions: 2 years
From the text: Study J was a 2-year randomized controlled trial in patients with early RA (disease duration<3 years). Participants in these clinical trials and in other phase Mb studies, were routinely evaluated for safety. Reports of serious adverse events (SAE) were tabulated using MedDRA coding by events per 100-patient-years (E/100PY). SAE rates were compared with respect to disease duration between patients with early (<3 yrs) and long-standing RA.

[6] = 6 months, completers, observed data
[7] = week 52 (1 year), non-responder imputation
[8] = week 52, baseline CRP 1-4 mg/dL

## CN(Cc1cnc2nc(N)nc(N)c2n1)c1ccc(C(=O)N[C@@H](CCC(=O)O)C(=O)O)cc1 [mtx alone, methotrexate]
[1]; 2 years, completers, observed data
  ACR70: 43%
[1]; [6]
  ACR20: 79.3%
  ACR50: 51.6%
  ACR70: 28.6%
[1]
  Major Clinical Response (ACR70 for ≧6 continuous months): 27 % of patients
[1]; week 52 (1 year)
  ACR70: 28 % of patients
  ACR90: 13 % of patients
[1]; [7]
  ACR20: 63# % of patients
  ACR50: 46 % of patients
[1]; week 52 (1 year), non-responder imputation, listed as MTX alone
  ACR20: 63 % of patients
[1]; week 104 (2 years)
  ACR20: 56 % of patients
  ACR50: 43 % of patients
  ACR70: 28 % of patients
  ACR90: 13 % of patients
[2]; 1 year
  Normal CRP (≦0.8 mg/dL): 35 % patients
[2]; 1 year, listed as MTX Alone
  patients with abnormal baseline CRP that became normal: 53% (n = 159)
[2]; 1 year, listed as MTX alone
  patients with abnormal baseline CRP that became normal: 53%
[2]; 2 years
  Normal CRP (≦0.8 mg/dL): 29 % patients
[2]
  Patient numbers: CRP Abnormal at Baseline, Abnormal at 1 Year: 75
  Patient numbers: CRP Normal at Baseline, Abnormal at 1 Year: 7
  Patient numbers: CRP Abnormal at Baseline, Normal at 1 Year: 84
  Patient numbers: CRP Normal at Baseline, Normal at 1 Year: 21
[3]; [8]
  ACR20: 36 % responders
  ACR50: 18 % responders
  ACR70: 9 % responders
[3]; week 52, baseline CRP <1 mg/dL
  ACR20: 30 % responders
  ACR50: 13 % responders
  ACR70: 6 % responders
[3]; week 52, baseline CRP >4 mg/dL
  ACR20: 47 % responders
  ACR50: 0 % responders
  ACR70: 0 % responders
[4]
  withdrawn, reason AE: 8%
  withdrawn, reason lack of efficacy: 18%
[5]
  All infectious AE: 119 Events/100-PY
  Demyelination: 0.0 Events/100-PY
  Lymphoma: 0.2 Events/100-PY
  Malignancies: 0.9 Events/100-PY
  Pancytopenia: 0.2 Events/100-PY
  Serious AE: 15.9 Events/100-PY
  Serious Infectious AE: 1.6 Events/100-PY
  Tuberculosis: 0.0 Events/100-PY

## adalimumab: human anti-TNF mAb (HUMIRA, Abbott Laboratories), described in U.S. Pat. No. 6,090,382 as D2E7
[1]
  Major Clinical Response (ACR70 for ≧6 continuous months): 25 % of patients
[1]; week 52 (1 year)
  ACR70: 26 % of patients
  ACR90: 8 % of patients
[1]; [7]
  ACR20: 54 % of patients
  ACR50: 42 % of patients
[1]; week 104 (2 years)
  ACR20: 50 % of patients
  ACR50: 37 % of patients
  ACR70: 28 % of patients
  ACR90: 9 % of patients
[2]; 1 year
  Normal CRP (≦0.8 mg/dL): 34 % patients
[2]; 1 year, listed as Adalimumab Alone
  patients with abnormal baseline CRP that became normal: 52% (n = 150)
[2]; 2 years
  Normal CRP (≦0.8 mg/dL): 34 % patients
[2]
  Patient numbers: CRP Abnormal at Baseline, Abnormal at 1 Year: 72
  Patient numbers: CRP Normal at Baseline, Abnormal at 1 Year: 4
  Patient numbers: CRP Abnormal at Baseline, Normal at 1 Year: 78
  Patient numbers: CRP Normal at Baseline, Normal at 1 Year: 33
[3]; month 12
  ACR20: 69%
  ACR50: 48%
  ACR70: 26%
[3]; month 24
  ACR20: 63%
  ACR50: 43%
  ACR70: 28%
[3]; month 36
  ACR20: 58%
  ACR50: 42%
  ACR70: 24% and 23%
[4]
  withdrawn, reason lack of efficacy: 19%
[5]
  Tuberculosis: 0.0 Events/100-PY
